Measurements published in patent publication US20190358181A1, “METHODS FOR AUTISM SPECTRUM DISORDER PHARMACOTHERAPY” (priority 2017, published 2019).

How the values were obtained:
Assay type in all cases: in vivo, human
males with ASD [1] = experiment: Aberrant Behavior Checklist (ABC), parent questionnaire, SAT-1 trial; conditions: ABC Stereotypy
Experimental: (§1) Two observational examinations were performed by a clinician at 3 time points: baseline (56±8 days; mean±SEM; before the infusion), 2-days post-infusion, and 6-weeks post-infusion. The two examiner-based metrics were the Autism Diagnostic Observation Schedule, 2nd edition (ADOS-2) with video and audio files recorded on 3 cameras, and the Expressive One Word Picture Vocabulary Testing (EOWPVT). Both of these observational metrics were administered by a trained and certified examiner using approved test materials. Three standardized questionnaires were completed by parents at 3 time points: baseline, 7-days post-infusion, and 6-weeks post-infusion. The three standardized questionnaires completed by parents were the 58-question Aberrant Behavior Checklist (ABC), the 75-item Autism Treatment Evaluation Checklist (ATEC), and the 33-item repetitive behavior questionnaire (RBQ). Parents were asked to complete these three instruments with reference to how their child behaved in the previous 7 days. At the end of the six weeks, we included a 24-question Clinical Global Impression (CGI) questionnaire (FIG. 16). In addition, parents were asked to list the 3 top behaviors or symptoms that they observed to be most changed over the previous 6-weeks. To minimize the misinterpretation of natural day-to-day variations in symptoms, parents were asked to mark a symptom as changed in the 6-week CGI only if it had lasted for at least 1 week. […]
(§2) Behavioral and neurological effects of treatment were assessed primarily by the examiner-based ADOS-2 protocol scores and standardized vocabulary testing (Expressive One Word Picture Vocabulary Test, EOWPVT), with secondary evaluation via parent-based assessments (Aberrant Behavior Checklist (ABC) scores, Autism Treatment Evaluation Checklist (ATEC) scores, Clinical Global Impression of Improvement (CGI) scores, and Repetitive Behavior Questionnaire (RBQ) scores). […] Examiner-based outcomes (ADOS and EOWPVT) were assessed at 2-days and 6-weeks after the infusion. Parent-based outcomes (ABC, ATEC, CGI, and RBQ) were assessed at 7-days and 6-weeks after the infusion. […]
Each child was used as their own control to examine before and after treatment effects from Example 1 in a paired t-test design for the analysis of the ADOS, EOWPVT, ABC, ATEC, RBQ (FIGS. 4-11 show individual analyses), and blood and urine safety data (FIGS. 2 and 3 show individual analyses). […] Categorical data, such as the presence or absence of adverse events or historical symptoms was analyzed by Fisher's exact test. […] Cohen's d—calculated as the mean difference of the paired, within-subject scores before and after treatment, divided by the standard deviation of the differences—was used as an estimate of effect size.

males with ASD [2] = experiment: Clinical Global Impression (CGI) 24-question instrument, SAT-1 trial; conditions: for Difference from baseline (mean ± sd) / d (Cohen's d): 45 days after treatment
Experimental: Two observational examinations were performed by a clinician at 3 time points: baseline (56±8 days; mean±SEM; before the infusion), 2-days post-infusion, and 6-weeks post-infusion. The two examiner-based metrics were the Autism Diagnostic Observation Schedule, 2nd edition (ADOS-2) with video and audio files recorded on 3 cameras, and the Expressive One Word Picture Vocabulary Testing (EOWPVT). Both of these observational metrics were administered by a trained and certified examiner using approved test materials. Three standardized questionnaires were completed by parents at 3 time points: baseline, 7-days post-infusion, and 6-weeks post-infusion. The three standardized questionnaires completed by parents were the 58-question Aberrant Behavior Checklist (ABC), the 75-item Autism Treatment Evaluation Checklist (ATEC), and the 33-item repetitive behavior questionnaire (RBQ). Parents were asked to complete these three instruments with reference to how their child behaved in the previous 7 days. At the end of the six weeks, we included a 24-question Clinical Global Impression (CGI) questionnaire (FIG. 16). In addition, parents were asked to list the 3 top behaviors or symptoms that they observed to be most changed over the previous 6-weeks. To minimize the misinterpretation of natural day-to-day variations in symptoms, parents were asked to mark a symptom as changed in the 6-week CGI only if it had lasted for at least 1 week.
We developed a 24-question Clinical Global Impression (CGI) instrument designed to assess the core symptoms of autism spectrum disorders and some of the most common comorbid features (FIG. 16). The CGI instrument scoring system was the traditional 7-point, CGI-Improvement scale. See, for e.g. Busner and Targum. Psychiatry. 2007(4):28-37. In this scale, the historian gives a score of 0 if the symptom “was never a problem”, a 1 for “very much improved”, a 4 for “no change”, and a 7 for “very much worse”. In addition to the 24 structured questions, we asked the parents to write in the top 3 symptoms or behaviors that were most changed over the 6 weeks since the suramin infusion. This hybrid design of structured and open-ended responses permitted us to capture a large number of clinical outcomes associated with single dose suramin treatment.
For the test dose, 50 mg of suramin hexasodium (Bayer Pharmaceuticals, Inc.) in 5 mL of saline (experimental arm, 5 patients), or 5 mL of saline only (control arm, 5 patients) were given by slow intravenous (IV) push over 3 minutes, followed by a 10 mL flush of saline. One hour after the test dose, vital signs were repeated and a single infusion of either suramin (20 mg/kg, minus the 50 mg test dose, in 50 mL, up to a maximum of 1 gram) or saline (50 mL IV) was given over 30 minutes, followed by a 10 mL flush of saline.
Behavioral and neurological effects of treatment were assessed primarily by the examiner-based ADOS-2 protocol scores and standardized vocabulary testing (Expressive One Word Picture Vocabulary Test, EOWPVT), with secondary evaluation via parent-based assessments (Aberrant Behavior Checklist (ABC) scores, Autism Treatment Evaluation Checklist (ATEC) scores, Clinical Global Impression of Improvement (CGI) scores, and Repetitive Behavior Questionnaire (RBQ) scores). See General Methods for information related to behavioral test administration. Prior to the study, diagnosis of each of the enrolled participants was confirmed by ADOS-2 comparison scores of ≥7, and non-verbal IQ was tested by Leiter-3 examination. Examiner-based outcomes (ADOS and EOWPVT) were assessed at 2-days and 6-weeks after the infusion. Parent-based outcomes (ABC, ATEC, CGI, and RBQ) were assessed at 7-days and 6-weeks after the infusion. To minimize the effects of natural behavioral variability, the parents were instructed to mark a behavior as changed only if it was persistently changed for at least 1 week. […]

males with ASD [3] = experiment: Repetitive Behavior Questionnaire (RBQ), SAT-1 trial
Experimental: as §1, with “days.” for “days. At the end of the six weeks, we included a 24-question Clinical Global Impression (CGI) questionnaire (FIG. 16). In addition, parents were asked to list the 3 top behaviors or symptoms that they observed to be most changed over the previous 6-weeks. To minimize the misinterpretation of natural day-to-day variations in symptoms, parents were asked to mark a symptom as changed in the 6-week CGI only if it had lasted for at least 1 week.”
as §2
Each child was used as their own control to examine before and after treatment effects from Example 1 in a paired t-test design for the analysis of the ADOS, EOWPVT, ABC, ATEC, RBQ (FIGS. 4-11 show individual analyses), and blood and urine safety data (FIGS. 2 and 3 show individual analyses). […] Categorical data, such as the presence or absence of adverse events or historical symptoms was analyzed by Fisher's exact test. […]

[4] = RBQ Total, 45 days after treatment

Compound: Cc1ccc(C(=O)Nc2ccc(S(=O)(=O)O)c3cc(S(=O)(=O)O)cc(S(=O)(=O)O)c23)cc1NC(=O)c1cccc(NC(=O)Nc2cccc(C(=O)Nc3cc(C(=O)Nc4ccc(S(=O)(=O)O)c5cc(S(=O)(=O)O)cc(S(=O)(=O)O)c45)ccc3C)c2)c1 [Suramin, suramin]
- Difference from baseline (mean ± sd) (males with ASD [1]; 7 days after treatment): −3.6 ± 2.1
- d (Cohen's d) (males with ASD [1]; 7 days after treatment): 1.7
- Difference from baseline (mean ± sd) (males with ASD [1]; 45 days after treatment): −4.0 ± 2.3
- d (Cohen's d) (males with ASD [1]; 45 days after treatment): 1.7
- symptoms covered in the CGI that were significant (males with ASD [2]; 6-weeks, 24 symptoms (FIG. 10C)): Four of 24
- Difference from baseline (mean ± sd) (males with ASD [2]; CGI E. Language (expressive language)): −2.0 ± 1.04
- d (Cohen's d) (males with ASD [2]; CGI E. Language): 1.9
- Difference from baseline (mean ± sd) (males with ASD [2]; CGI Overall ASD symptoms): −1.8 ± 1.04
- d (Cohen's d) (males with ASD [2]; CGI Overall ASD symptoms): 1.7
- Difference from baseline (mean ± sd) (males with ASD [2]; CGI Social Inter. (social interaction)): −2.0 ± 1.04
- d (Cohen's d) (males with ASD [2]; CGI Social Inter.): 1.9
- Repetitive Behavior Questionnaire (RBQ) scores (males with ASD [3]; 6-weeks): did not capture a change
- Difference from baseline (mean ± sd) (males with ASD [3]; [4]): −3.2 ± 5.8
- d (Cohen's d) (males with ASD [3]; [4]): 0.55
